Results: US6730700B2, “3,4,5,-trisubstituted aryl nitrone compounds and pharmaceutical compositions containing the same” (Renovis, Inc., priority 1998, dated 2004)

Tests used:
[1] = target: T1, COX-1 derived from ram seminal vesicles (Ovis aries, UniProt P05979); assay: Inhibition of COX-1 (arachidonic acid incubation, PGE2 formation); settings: 300 μM; PGE2 formation by spectrophotometric quantitation of malondialdehyde
T1 sequence (P05979 25-600): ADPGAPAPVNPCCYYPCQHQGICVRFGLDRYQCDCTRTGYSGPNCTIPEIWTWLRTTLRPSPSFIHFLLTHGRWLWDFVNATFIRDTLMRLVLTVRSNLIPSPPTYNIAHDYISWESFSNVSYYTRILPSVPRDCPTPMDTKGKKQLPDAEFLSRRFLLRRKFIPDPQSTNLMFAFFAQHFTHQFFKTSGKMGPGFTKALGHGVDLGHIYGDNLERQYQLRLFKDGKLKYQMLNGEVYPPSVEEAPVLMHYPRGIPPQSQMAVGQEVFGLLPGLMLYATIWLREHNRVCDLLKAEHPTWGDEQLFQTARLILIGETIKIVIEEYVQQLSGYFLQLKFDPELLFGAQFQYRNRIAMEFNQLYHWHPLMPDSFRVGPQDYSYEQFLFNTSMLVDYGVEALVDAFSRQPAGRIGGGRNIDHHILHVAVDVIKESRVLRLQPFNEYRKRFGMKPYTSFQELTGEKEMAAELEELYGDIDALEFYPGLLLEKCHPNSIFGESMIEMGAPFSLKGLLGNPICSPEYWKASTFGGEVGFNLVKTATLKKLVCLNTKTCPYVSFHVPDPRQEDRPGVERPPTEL
Experimental: (§1) The inhibition of COX-1 was measured by incubating arachidonic acid with COX-1 derived from ram seminal vesicles. The inhibition of COX-2 was measured by incubation of arachidonic acid with COX-2 derived from sheep placenta. […] In each assay, the formation of prostaglandin E2 (PGE2) was measured by spectrophotometric quantitation of malondialdehyde.

[2] = target: T2, COX-2 derived from sheep placenta (Ovis aries, UniProt P79208); assay: Inhibition of COX-2 (arachidonic acid incubation, PGE2 formation); settings: 300 μM; PGE2 formation by spectrophotometric quantitation of malondialdehyde
T2 sequence (P79208 17-603): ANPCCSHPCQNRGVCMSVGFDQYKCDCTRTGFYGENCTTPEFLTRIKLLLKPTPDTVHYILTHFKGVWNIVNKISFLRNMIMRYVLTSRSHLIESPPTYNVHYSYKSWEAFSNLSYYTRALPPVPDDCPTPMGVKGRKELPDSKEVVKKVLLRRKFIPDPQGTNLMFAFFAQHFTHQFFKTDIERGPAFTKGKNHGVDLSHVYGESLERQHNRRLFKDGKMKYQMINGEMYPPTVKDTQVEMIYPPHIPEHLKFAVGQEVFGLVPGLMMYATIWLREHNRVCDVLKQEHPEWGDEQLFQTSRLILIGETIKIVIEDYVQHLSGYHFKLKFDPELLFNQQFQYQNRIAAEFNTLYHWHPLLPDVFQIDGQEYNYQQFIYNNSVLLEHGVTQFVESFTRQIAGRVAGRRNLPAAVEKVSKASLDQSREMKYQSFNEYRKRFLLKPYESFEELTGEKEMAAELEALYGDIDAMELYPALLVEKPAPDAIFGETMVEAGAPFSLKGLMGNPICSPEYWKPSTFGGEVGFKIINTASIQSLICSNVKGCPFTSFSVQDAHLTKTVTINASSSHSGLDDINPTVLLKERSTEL
Experimental: as §1

[3] = tested on: adjuvant-induced footpad edema in rats; assay: Adjuvant assay (adjuvant-induced footpad edema); format: in vivo, rat; settings: Male Lewis rats, 3 mg/kg po, dosing day 14 to day 21 post-adjuvant
Experimental: See, for example, […], “Rat Adjuvant Arthritis A Model of Chronic Inflammation,” Pharmocoloigal Methods in the Control of Inflammation, 363-380 (1989) and references cited therein In this assay, Male Lewis rats weighing between 180-220 g were lightly anesthetized with an ip injection of 30 mg/kg of sodium pentobarbital (50 mg/mL). Desiccated Mycobacterium butyrium (Difco, 20 mg/mL) suspended in mineral oil was injected (50 μL) at both sides of the base of the tail under the skin A line was tattooed on both rear paws at 5 mm above the angle of the ankle The paw volumes, under the line, were measured by volume displacement using a plethysmometer (Ugo Basile) at the day of adjuvant injection (day 0) and on day 14 On day 14, animals with paw volumes equal to the mean of paw volumes ±SD were randomized into treatment groups. Rats which fell outside ±1 SD were not used in the experiment.

CC(=O)Oc1c(C(C)(C)C)cc(/C=[N+](\[O-])C(C)(C)C)cc1C(C)(C)C [Example 1, α-(4-Acetoxy-3,5-di-tert-butylphenyl)-N-tert-butylnitrone]
inhibition of COX-1 [1]: did not significantly affect | inhibition of COX-2 [2]: did not significantly affect

COc1ccc2c(c1)c(CC(=O)O)c(C)n2C(=O)c1ccc(Cl)cc1 [indomethacin]
paw volume as compared to vehicle controls [3]: significantly reduced
